# Measured values taken from PubChem BioAssay AID330 (DTP/NCI, 2004).
# Several values for one entry are separate records, joined by “and”; a condition that tells them apart may be missing. Identical values can stand only once. Inconclusive results and toxic doses are left out.
# System: P388 leukemia ip, CD2F1 mice, survival T/C
# Assay: NCI In Vivo Anticancer Drug Screen. Data for tumor model P388 Leukemia (intraperitoneal) in CD2F1 (CDF1) mice
# Details: endpoint: median survival time, higher = longer survival
# Summary of the method: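 Mice carrying the transplanted tumor received test compound or vehicle. Survival was recorded in each group, and the value is the treated-group measurement divided by that of the vehicle-treated control group.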
# [1] = dose: 15.0 mg/kg/injection, schedule: Q01DX005 (ip), vehicle: saline with Tween-80
# [2] = dose: 30.0 mg/kg/injection, schedule: Q01DX005 (ip), vehicle: saline with Tween-80
# [3] = dose: 60.0 mg/kg/injection, schedule: Q01DX005 (ip), vehicle: saline with Tween-80
# [4] = dose: 25.0 mg/kg/injection, schedule: Q01DX009 (ip), vehicle: saline with Tween-80
# [5] = dose: 50.0 mg/kg/injection, schedule: Q01DX009 (ip), vehicle: saline with Tween-80
# [6] = dose: 50.0 mg/kg/injection, schedule: Q01DX009 (ip), vehicle: saline
# [7] = dose: 100.0 mg/kg/injection, schedule: Q01DX009 (ip), vehicle: saline
# [8] = dose: 100.0 mg/kg/injection, schedule: Q01DX009 (ip), vehicle: saline with Tween-80
# [9] = dose: 200.0 mg/kg/injection, schedule: Q01DX009 (ip), vehicle: saline with Tween-80
smiles,measurement,setting,value
COc1cccc2c1C(=O)c1c(O)c3c(c(O)c1C2=O)C[C@@](O)(/C(C)=N/NC(=O)c1ccc(S(N)(=O)=O)cc1)C[C@@H]3OC1CC(N)C(O)C(C)O1 (some centres undefined),T/C,"dose: 0.78 mg/kg/injection, schedule: Q01DX009 (ip), vehicle: water",150 % of control
same,T/C,"dose: 1.56 mg/kg/injection, schedule: Q01DX009 (ip), vehicle: water",161 % of control
same,T/C,"dose: 3.13 mg/kg/injection, schedule: Q01DX009 (ip), vehicle: water",154 % of control and 182 % of control
same,T/C,"dose: 4.7 mg/kg/injection, schedule: Q04DX003 (ip), vehicle: water",105 % of control and 106 % of control
same,T/C,"dose: 6.25 mg/kg/injection, schedule: Q01DX009 (ip), vehicle: water",178 % of control and 201 % of control
same,T/C,"dose: 12.5 mg/kg/injection, schedule: Q01DX001 (ip), vehicle: water",161 % of control
same,T/C,"dose: 12.5 mg/kg/injection, schedule: Q01DX009 (ip), vehicle: water",196 % of control and 214 % of control
same,T/C,"dose: 18.8 mg/kg/injection, schedule: Q04DX003 (ip), vehicle: water",123 % of control
same,T/C,"dose: 25.0 mg/kg/injection, schedule: Q01DX001 (ip), vehicle: water",188 % of control
same,T/C,"dose: 37.5 mg/kg/injection, schedule: Q04DX003 (ip), vehicle: water",203 % of control
same,T/C,"dose: 75.0 mg/kg/injection, schedule: Q04DX003 (ip), vehicle: water",122 % of control
same,T/C,"dose: 150.0 mg/kg/injection, schedule: Q04DX003 (ip), vehicle: water",100 % of control and 93 % of control
O=C(Nc1ccccc1C1=NCCN1)Nc1ccccc1C1=NCCN1,T/C,"dose: 50.0 mg/kg/injection, schedule: Q01DX005 (ip), vehicle: saline",100 % of control
same,T/C,"dose: 100.0 mg/kg/injection, schedule: Q01DX005 (ip), vehicle: saline",106 % of control
CSc1cccc(NC(=O)Oc2c(Cl)cccc2Cl)c1,T/C,"dose: 50.0 mg/kg/injection, schedule: Q01DX009 (ip), vehicle: gum acacia",113 % of control
same,T/C,"dose: 100.0 mg/kg/injection, schedule: Q01DX009 (ip), vehicle: gum acacia",111 % of control
Nc1cc([N+](=O)[O-])ccc1-c1ccc(NC(=O)CCNC=O)cc1,T/C,"dose: 12.5 mg/kg/injection, schedule: Q01DX009 (ip), vehicle: other",93 % of control
same,T/C,"dose: 25.0 mg/kg/injection, schedule: Q01DX009 (ip), vehicle: other",97 % of control
same,T/C,"dose: 50.0 mg/kg/injection, schedule: Q01DX009 (ip), vehicle: other",90 % of control
same,T/C,"dose: 100.0 mg/kg/injection, schedule: Q01DX009 (ip), vehicle: other",93 % of control
same,T/C,"dose: 200.0 mg/kg/injection, schedule: Q01DX009 (ip), vehicle: other",91 % of control
COc1ccc(/C(O)=C/c2nc3cccc([N+](=O)[O-])c3[nH]c2=O)cc1,T/C,[1],91 % of control
same,T/C,[2],91 % of control
same,T/C,[3],86 % of control
CCCN=C(N)c1ccc(NC(=O)c2ccc(C(=O)Nc3ccc(C(N)=NCCC)cc3)cc2)cc1,T/C,"dose: 6.25 mg/kg/injection, schedule: Q04DX003 (ip), vehicle: saline with Tween-80",154 % of control
same,T/C,"dose: 12.5 mg/kg/injection, schedule: Q04DX003 (ip), vehicle: saline with Tween-80",163 % of control
same,T/C,[4],122 % of control
same,T/C,"dose: 25.0 mg/kg/injection, schedule: Q04DX003 (ip), vehicle: saline with Tween-80",154 % of control
same,T/C,[5],90 % of control
same,T/C,"dose: 50.0 mg/kg/injection, schedule: Q04DX003 (ip), vehicle: saline with Tween-80",213 % of control
same,T/C,"dose: 100.0 mg/kg/injection, schedule: Q04DX003 (ip), vehicle: saline with Tween-80",100 % of control
CCCCCCCCCCCCCCN1CCSCC1,T/C,[6],101 % of control
same,T/C,[7],99 % of control
Cc1c2c[n+](CCCCCCCC[n+]3ccc4c(C)c5c(c(C)c4c3)c3ccccc3n5CCO)ccc2c(C)c2c1c1ccccc1n2CCO,T/C,"dose: 0.78 mg/kg/injection, schedule: Q04DX003 (ip), vehicle: distilled water + Tween-80",154 % of control
same,T/C,"dose: 1.56 mg/kg/injection, schedule: Q04DX003 (ip), vehicle: distilled water + Tween-80",155 % of control and 157 % of control
same,T/C,"dose: 6.25 mg/kg/injection, schedule: Q04DX003 (ip), vehicle: distilled water + Tween-80",155 % of control and 158 % of control
same,T/C,"dose: 12.5 mg/kg/injection, schedule: Q04DX003 (ip), vehicle: distilled water + Tween-80",158 % of control and 184 % of control
same,T/C,"dose: 25.0 mg/kg/injection, schedule: Q04DX003 (ip), vehicle: distilled water + Tween-80",184 % of control
same,T/C,"dose: 50.0 mg/kg/injection, schedule: Q04DX003 (ip), vehicle: distilled water + Tween-80",87 % of control
Cc1cc(NS(=O)(=O)c2ccc(N=Nc3cc(N=Nc4ccc(S(=O)(=O)Nc5cc(C)nc(C)n5)cc4)c4c(NC(=O)C(Cl)Cl)cccc4c3OC(=O)C(Cl)Cl)cc2)nc(C)n1 (tested in a mixture with another compound),T/C,"dose: 12.5 mg/kg/injection, schedule: Q01DX009 (ip), vehicle: saline with Tween-80",113 % of control
same,T/C,[4],117 % of control
same,T/C,[5],106 % of control [middle of 4 runs]
same,T/C,[6],108 % of control [middle of 4 runs]
same,T/C,[8],99 % of control and 105 % of control and 107 % of control
same,T/C,[7],111 % of control and 115 % of control and 118 % of control
same,T/C,[9],91 % of control and 95 % of control
same,T/C,"dose: 200.0 mg/kg/injection, schedule: Q01DX009 (ip), vehicle: saline",99 % of control
O=C1NNC=Nc2nc3c(cc21)CCCC3,T/C,"dose: 60.0 mg/kg/injection, schedule: Q01DX005 (ip), vehicle: Klucel (hydroxypropylcellulose) (HPC)",98 % of control
same,T/C,"dose: 120.0 mg/kg/injection, schedule: Q01DX005 (ip), vehicle: Klucel (hydroxypropylcellulose) (HPC)",92 % of control
same,T/C,"dose: 240.0 mg/kg/injection, schedule: Q01DX005 (ip), vehicle: Klucel (hydroxypropylcellulose) (HPC)",94 % of control
C1CN2CCOC2O1,T/C,"dose: 60.0 mg/kg/injection, schedule: Q01DX005 (ip), vehicle: saline",100 % of control
same,T/C,"dose: 120.0 mg/kg/injection, schedule: Q01DX005 (ip), vehicle: saline",101 % of control
same,T/C,"dose: 240.0 mg/kg/injection, schedule: Q01DX005 (ip), vehicle: saline",99 % of control
CSc1cccc(NC(=O)Nc2ccccc2C(N)=O)c1,T/C,"dose: 50.0 mg/kg/injection, schedule: Q01DX009 (ip), vehicle: Klucel (hydroxypropylcellulose) (HPC)",94 % of control
same,T/C,"dose: 100.0 mg/kg/injection, schedule: Q01DX009 (ip), vehicle: Klucel (hydroxypropylcellulose) (HPC)",103 % of control
same,T/C,"dose: 200.0 mg/kg/injection, schedule: Q01DX009 (ip), vehicle: Klucel (hydroxypropylcellulose) (HPC)",94 % of control
CN(C)c1ccc(C2=C(c3ccccc3)C(=O)C3(c4ccccc4)CC23c2ccc(N(C)C)cc2)cc1 (centres undefined),T/C,"dose: 50.0 mg/kg/injection, schedule: Q01DX005 (ip), vehicle: Klucel + Tween-80",92 % of control
same,T/C,"dose: 100.0 mg/kg/injection, schedule: Q01DX005 (ip), vehicle: Klucel + Tween-80",90 % of control
same,T/C,"dose: 200.0 mg/kg/injection, schedule: Q01DX005 (ip), vehicle: Klucel + Tween-80",90 % of control
CN1CCCCC1CC(O)c1ccccc1 (centres undefined),T/C,"dose: 12.5 mg/kg/injection, schedule: Q01DX005 (ip), vehicle: Klucel (hydroxypropylcellulose) (HPC)",103 % of control
same,T/C,"dose: 25.0 mg/kg/injection, schedule: Q01DX005 (ip), vehicle: Klucel (hydroxypropylcellulose) (HPC)",105 % of control
same,T/C,"dose: 50.0 mg/kg/injection, schedule: Q01DX005 (ip), vehicle: Klucel (hydroxypropylcellulose) (HPC)",100 % of control
CCOC(=O)C(=CNc1ccccc1)C(=O)OCC,T/C,[4],103 % of control
same,T/C,[5],100 % of control
same,T/C,[8],103 % of control
same,T/C,[9],100 % of control
O=[C-]C(F)(F)F.[C-]#[O+].[C-]#[O+].[C-]#[O+].[C-]#[O+].[C-]#[O+].[Mn],T/C,"dose: 50.0 mg/kg/injection, schedule: Q01DX001 (ip), vehicle: other",100 % of control
same,T/C,"dose: 100.0 mg/kg/injection, schedule: Q01DX001 (ip), vehicle: other",100 % of control
CC(=O)OCC1OC(Sc2ccc([N+](=O)[O-])cc2)C(OC(C)=O)C(OC(C)=O)C1OC(C)=O (centres undefined),T/C,[1],100 % of control
same,T/C,[2],98 % of control
same,T/C,[3],91 % of control
CC1CN1P(=O)(N1CCCC1)N1CC1C (centres undefined),T/C,"dose: 4.4 mg/kg/injection, schedule: Q01DX009 (ip), vehicle: saline",109 % of control
same,T/C,"dose: 6.6 mg/kg/injection, schedule: Q01DX009 (ip), vehicle: saline",120 % of control
same,T/C,"dose: 12.5 mg/kg/injection, schedule: Q04DX003 (ip), vehicle: saline",100 % of control
same,T/C,"dose: 25.0 mg/kg/injection, schedule: Q01DX009 (ip), vehicle: saline",150 % of control
same,T/C,"dose: 25.0 mg/kg/injection, schedule: Q04DX003 (ip), vehicle: saline",108 % of control
same,T/C,"dose: 66.0 mg/kg/injection, schedule: Q04DX003 (ip), vehicle: saline",166 % of control
same,T/C,[7],86 % of control
same,T/C,"dose: 100.0 mg/kg/injection, schedule: Q04DX003 (ip), vehicle: saline",175 % of control
